Common to all, as to experiment: NCI-60 cell line screen, 48 h
Assay [1] deals with SK-MEL-28 melanoma.
The subject of assay [2] is HT29 colon.
For assay [3], the system named is M14 melanoma.
Assay [4] has as its system EKVX NSCLC.
Assay [5] relates to T-47D breast.
For assay [6], the system named is BT-549 breast.
For assay [7], the system named is SF-539 CNS.
For assay [8], the system named is SN12C renal.
Assay [9] deals with OVCAR-3 ovarian.
The subject of assay [10] is SK-OV-3 ovarian.

Consider 14 compounds from PubChem BioAssay (NCI).

Values joined by “and” are separate entries in the source; they are usually repeats but may differ in a detail not shown here. Equal entries are not always repeated.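 All cell lines were grown in 96-well plates and treated with compound for 48 hours. GI50 marks 50% less growth. The concentration for full growth arrest is given as TGI.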

As to `C/C=C/C=C/C1=NN(c2cccc(S(=O)(=O)O)c2)C2(C1)SCC(=O)N2c1nc2ccccc2s1` (configuration not stated), the TGI in [1], in assay [2], in [3], in [4], in [5] and in [6] was above 100 µM in each case. The TGI in [7] and in assay [8] was above 100 µM each time.
In the case of `COc1ccc(OC)c(CNc2ccc(O)c(C(=O)NCCc3ccc(F)cc3)c2)c1`, the TGI in assay [1] was determined as 27.7 µM; in assay [2], 47.5 µM; in assay [3] it was 26.8 µM; in [4], 65.6 µM; in assay [6], 73.6 µM; in [7], 35.7 µM. Also, the TGI was determined as 28.8 µM in assay [9], 46.3 µM in assay [10] and 71.9 µM in assay [8].
Regarding `CN(C)CCCNC(=O)c1cc(NC(=O)c2cc(NC(=O)c3cc(NC(=O)CCCn4ccc(CO)c4CO)cn3C)cn2C)cn1C`, the TGI in assay [1] was 42.1 µM; in assay [4], above 100 µM; in assay [5], above 100 µM; in assay [6], 7.51 µM; in [7], 33.6 µM; in [9], 44.7 µM. The TGI in assay [10] and in [8] was above 100 µM each time.
Take `C[C@H](CC[C@@H](O)C(C)(C)O)[C@H]1CC[C@@]2(C)[C@@H]3CC=C4[C@@H](CC[C@H](OC5OC(CO)C(O)C(O)C5O)C4(C)C)[C@]3(C)C(=O)C[C@]12C` (some centres not stated): the TGI is 77.8 µM in assay [1]; above 100 µM in assay [2]; 92.1 µM in assay [3]; above 100 µM in assay [4]; above 100 µM in [5]; above 100 µM in assay [6]. Further, the TGI in assay [7], in [9], in assay [10] and in [8] was above 100 µM each time.
On to `Cc1ccc(S(=O)(=O)n2cc(-c3cnc(N)c(Br)n3)c3ccccc32)cc1`, for which the TGI in assay [1] was above 57 µM; in assay [2], 9.57 µM; in assay [3], above 55.1 µM; in assay [4], above 100 µM; in assay [5], above 100 µM; in assay [6], above 100 µM. The TGI is above 23.3 µM in [7], above 45.7 µM in assay [9], above 100 µM in assay [10] and 11.9 µM in assay [8].
`O=C(c1ccc(Cl)cc1)N1N=C(c2ccc(Cl)cc2)CC1(O)c1cc(F)c(Cl)cc1Cl` (configuration not stated): the TGI in assay [1] was above 100 µM; in assay [2] it was 72.5 µM; in [3], 78.3 µM; in [4] it was 59.3 µM; in assay [5] it was above 100 µM; in assay [6] it was above 100 µM. Moreover, the TGI in assay [7] is above 100 µM; in assay [9] it was 55.6 µM; in assay [10], above 100 µM; in assay [8], 73.4 µM.
Take `O=C(Nc1ccc2ccccc2c1)Nn1cnnc1`: the TGI in assay [1], in [2], in assay [3], in [4], in assay [5] and in assay [6] was above 100 µM throughout. Also, the TGI in [7], in [9] and in [10] was above 100 µM each time.
Take `CC(=O)NC1C(OCc2ccccc2)OC(CO)C(O)C1OCC(=O)NC(C)C(=O)NC(CCC(=O)NCCCCCC(=O)Nc1ccc2c(c1)CN1C(=O)c3ccccc3C1=N2)C(N)=O` (configuration not stated): the TGI in assay [1], in [2], in [3], in [4], in [5] and in assay [6] was above 100 µM in each case. For the same compound, the TGI in assay [7], in [9], in assay [10] and in [8] was above 100 µM in each case.
For the compound `C=CCN1CC2CN=NC2(C#N)C1` (configuration not stated), the TGI in [1], in [2], in assay [4], in assay [5], in assay [6] and in assay [9] was above 100 µM in each case. For the same compound, the TGI in [8] was above 100 µM.
For the compound `Cc1cc(S(=O)(=O)O)ccc1N=Nc1ccc(N=Nc2c(O)ccc3ccccc23)c(C)c1`, the TGI in [1], in [2], in [3], in [4], in [5] and in assay [6] was above 100 µM in each case. Besides, the TGI in assay [9], in assay [10] and in [8] was above 100 µM each time.
For the compound `Cc1cc(=O)c2c(O)c3c(O)cc(O)c4c5c(O)cc(O)c6c(O)c7c(=O)cc(C)c8c1c2c(c34)c(c65)c78`, the TGI in assay [1] is above 100 µM; in assay [2], > 100 µM and 43.2 µM; in [3], above 100 µM; in assay [4], above 100 µM; in assay [5], above 100 µM; in assay [6], above 100 µM. Further, the TGI is above 100 µM in assay [7]; above 100 µM in assay [9]; > 100 µM and 41.9 µM in [10]; above 100 µM in assay [8]. In addition, the GI50 in [2] was > 100 µM and 19.2 µM; in [7] it was above 100 µM; in [10], > 100 µM and 21.6 µM.
As for `c1ccc(C(CCN2CCCC2)c2ccccn2)cc1` (configuration not stated), the TGI in assay [1], in assay [2], in assay [3], in [4], in assay [5] and in assay [6] was above 100 µM each time. In addition, the TGI in assay [10] and in [8] was above 100 µM each time.
As for `Cc1nnc(N)nc1/C=C\c1cccs1`, the TGI is above 100 µM in [1]; 41.4 µM in [2]; 36.9 µM in assay [3]; 55.6 µM in assay [4]; above 100 µM in assay [5]; above 100 µM in [6]. The compound also yielded a TGI in assay [10] above 100 µM.
As to `NCCCCNCCCN`, the TGI in assay [1], in [2], in assay [3], in [4], in [5] and in assay [6] was above 100 µM in each case. The TGI in [7], in assay [9] and in [10] was above 100 µM in each case.
